From the supplement of paper PMC11061612

What was measured:
[1] = tested on: A4-Fuk (B-Lymphoblastic Leukemia); assay: Bliss excess, mean over the matrix (fraction); higher = more synergy
Procedure, shortened: (§1)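 After 24 hours at 37°C and 5% CO2 in 1536-well plates, cells in DMEM/F12 or RPMI plus 10% FBS received two-drug dose matrices for 72 hours. Viability came from CellTiter-Glo 2.0 luminescence and was scaled as inhibition, anchored at 0 by vehicle wells and at 1 by blank wells. Combination Emax is taken as the second-highest inhibition in the matrix, and Bliss excess as the observed combination effect less EA + EB − EA·EB, with EA and EB the single-agent effects.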

[2] = tested on: CADO-ES1 (Ewing's Sarcoma); assay: as above
Procedure, shortened: as §1

[3] = tested on: COLO-668 (Small Cell Lung Carcinoma); assay: as above
Procedure, shortened: as §1

EW-1 (Ewing's Sarcoma) = assay: as above
Procedure, shortened: as §1

[4] = tested on: HCC1500 (Breast Carcinoma); assay: as above
Procedure, shortened: as §1

[5] = tested on: HCC2998 (Colorectal Carcinoma); assay: as above
Procedure, shortened: as §1

Hey (Ovarian Carcinoma) = assay: as above
Procedure, shortened: as §1

[6] = tested on: KGN (Other Solid Carcinomas); assay: as above
Procedure, shortened: as §1

[7] = tested on: KMRC-1 (Kidney Carcinoma); assay: as above
Procedure, shortened: as §1

[8] = tested on: KOPN-8 (B-Lymphoblastic Leukemia); assay: as above
Procedure, shortened: as §1

[9] = tested on: Mo-T (Other Blood Carcinomas); assay: as above
Procedure, shortened: as §1

[10] = tested on: NCI-H1355 (Lung Adenocarcinoma); assay: as above
Procedure, shortened: as §1

[11] = tested on: NCI-H1993 (Lung Adenocarcinoma); assay: as above
Procedure, shortened: as §1

[12] = tested on: NCI-H522 (Lung Adenocarcinoma); assay: as above
Procedure, shortened: as §1

[13] = tested on: OE33 (Esophageal Adenocarcinoma); assay: as above
Procedure, shortened: as §1

SK-N-AS (Neuroblastoma) = assay: as above
Procedure, shortened: as §1

[14] = tested on: SKN (Other Solid Carcinomas); assay: as above
Procedure, shortened: as §1

[15] = tested on: SNU-387 (Hepatocellular Carcinoma); assay: as above
Procedure, shortened: as §1

[16] = tested on: NCI-H1355 (Lung Adenocarcinoma); assay: combination Emax (second highest fraction inhibited in the dose matrix, 72 h); higher = more inhibition; extreme values may be limits of the assay
Procedure, shortened: as §1

[17] = tested on: OE33 (Esophageal Adenocarcinoma); assay: as above
Procedure, shortened: as §1
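Wherever Bliss excess, mean over the matrix is given: after 72 h of two-drug dosing.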

| SMILES | Bliss excess [1] | Bliss excess [2] | Bliss excess [3] | Bliss excess (EW-1 (Ewing's Sarcoma)) | Bliss excess [4] | Bliss excess [5] | Bliss excess (Hey (Ovarian Carcinoma)) | Bliss excess [6] | Bliss excess [7] | Bliss excess [8] | Bliss excess [9] | Bliss excess [10] | Bliss excess [11] | Bliss excess [12] | Bliss excess [13] | Bliss excess (SK-N-AS (Neuroblastoma)) | Bliss excess [14] | Bliss excess [15] | combination Emax [16] | combination Emax [17] |
| --- | --- | --- | --- | --- | --- | --- | --- | --- | --- | --- | --- | --- | --- | --- | --- | --- | --- | --- | --- | --- |
| CCc1c2c(nc3ccc(O)cc13)-c1cc3c(c(=O)n1C2)COC(=O)[C@]3(O)CC [SN-38] + CN(C)CCCOc1ccc(-c2ccc3ncc4c(c3c2)n(C2CCOCC2)c(=O)n4C)cn1 [AZD0156] (first compound max 0.3 µM, 7x7, partner max 1 µM) | 0.0222 | 0.0718 | -0.0198 | 0.0608 | 0.0076 | 0.253 | 0.0372 | -0.0065 | 0.0671 | 0.0362 | -0.0527 | -0.0107 | -0.0008 | 0.0294 | 0.0575 | -0.0061 | -0.0094 | -0.0373 | 0.361 | 0.642 |
| CN(CCO)CC[C@H](CSc1ccccc1)Nc1ccc(S(=O)(=O)NC(=O)c2ccc(N3CCC([C@@H](O)c4ccccc4-c4ccc(Cl)cc4)CC3)cc2)cc1S(=O)(=O)C(F)(F)F [AZD4320] + C=CCn1c(=O)c2cnc(Nc3ccc(N4CCN(C)CC4)cc3)nc2n1-c1cccc(C(C)(C)O)n1 [AZD1775] (first compound max 1 µM, partner max 1 µM) | -0.0107 | -0.005 | 0.0801 | 0.0581 | 0.11 | 0.0609 | -0.053 | -0.0387 | 0.0036 | 0.0016 | 0.0529 | 0.0162 | 0.0951 | -0.0299 | -0.0093 | -0.0292 | 0.0666 | 0.0102 | 0.594 | 0.492 |
| COc1nnc2ccc(N3CCC(c4ccc(OCCN5CCN(C)C(=O)[C@H]5C)cc4)CC3)nn12 [AZD5153] + C=CCn1c(=O)c2cnc(Nc3ccc(N4CCN(C)CC4)cc3)nc2n1-c1cccc(C(C)(C)O)n1 [AZD1775] (first compound max 1 µM, partner max 1 µM) | -0.109 | -0.0483 | -0.0349 | -0.0484 | 0.0305 | -0.0083 | -0.0997 | -0.12 | -0.0108 | -0.0267 | -0.0532 | 0.0155 | -0.0758 | -0.0617 | -0.0386 | -0.056 | -0.0027 | -0.107 | 0.57 | 0.435 |
| CN(C)CCCOc1ccc(-c2ccc3ncc4c(c3c2)n(C2CCOCC2)c(=O)n4C)cn1 [AZD0156] + O=C(c1cc(Cc2n[nH]c(=O)c3ccccc23)ccc1F)N1CCN(C(=O)C2CC2)CC1 [Olaparib] (first compound max 3 µM, partner max 3 µM) | 0.0383 | 0.285 | -0.0077 | 0.231 | 0.0055 | 0.0824 | 0.106 | 0.156 | -0.0316 | 0.31 | -0.046 | 0.0176 | -0.0191 | -0.0273 | 0.0228 | -0.0959 | 0.0023 | 0.0072 | 0.305 | 0.207 |
| CC1(C)CCC(CN2CCN(c3ccc(C(=O)NS(=O)(=O)c4ccc(NCC5CCOCC5)c([N+](=O)[O-])c4)c(Oc4cnc5[nH]ccc5c4)c3)CC2)=C(c2ccc(Cl)cc2)C1 [Venetoclax] + COc1cc(Nc2ncc3c(n2)-c2ccc(Cl)cc2C(c2c(F)cccc2OC)=NC3)ccc1C(=O)O [Alisertib] (first compound max 1 µM, 7x7, partner max 10 µM) | -0.026 | 0.032 | 0.066 | 0.174 | 0.141 | 0.0056 | -0.0449 | -0.0167 | -0.012 | 0.036 | 0.0928 | -0.0205 | -0.029 | 0.0305 | 0.0221 | 0.0947 | -0.0051 | -0.0456 | 0.473 | 0.314 |
| NC1(C(=O)N[C@@H](CCO)c2ccc(Cl)cc2)CCN(c2ncnc3[nH]ccc23)CC1 [Capivasertib] + COc1nnc2ccc(N3CCC(c4ccc(OCCN5CCN(C)C(=O)[C@H]5C)cc4)CC3)nn12 [AZD5153] (first compound max 10 µM, 7x7, partner max 1 µM) | -0.0465 | 0.0331 | 0.0552 | 0.0867 | 0.0118 | -0.0046 | 0.0206 | 0.0358 | 0.0129 | -0.0463 | -0.0717 | 0.0316 | 0.0372 | -0.0698 | 0.0052 | -0.0159 | 0.0238 | -0.004 | 0.503 | 0.319 |
| CC(=O)Nc1cccc(-n2c(=O)n(C3CC3)c(=O)c3c(Nc4ccc(I)cc4F)n(C)c(=O)c(C)c32)c1 [Trametinib] + Cc1nc(-c2cn3c(n2)-c2ccc(-c4cnn(C(C)(C)C(N)=O)c4)cc2OCC3)n(C(C)C)n1 [Taselisib] (first compound max 1 µM, 7x7, partner max 10 µM) | 0.127 | -0.0253 | 0.289 | 0.038 | 0.0452 | 0.0408 | 0.0984 | 0.0972 | 0.0072 | -0.101 | 0.142 | 0.0292 | 0.0556 | 0.0504 | 0.17 | 0.0104 | -0.0353 | 0.185 | 0.69 | 0.84 |
| COc1nnc2ccc(N3CCC(c4ccc(OCCN5CCN(C)C(=O)[C@H]5C)cc4)CC3)nn12 [AZD5153] + CC1(C)CCC(CN2CCN(c3ccc(C(=O)NS(=O)(=O)c4ccc(NCC5CCOCC5)c([N+](=O)[O-])c4)c(Oc4cnc5[nH]ccc5c4)c3)CC2)=C(c2ccc(Cl)cc2)C1 [Venetoclax] (first compound max 1 µM, 7x7, partner max 1 µM) | -0.0678 | -0.088 | 0.0229 | -0.068 | -0.04 | -0.0766 | -0.0568 | -0.0165 | -0.063 | 0.0517 | -0.0447 | -0.0243 | -0.0456 | -0.0711 | -0.0775 | -0.0792 | -0.0295 | -0.0699 | 0.327 | 0.19 |
| COc1cccc(OCCCN)c1-c1cc(Nc2cnc(C#N)cn2)n[nH]1 [Prexasertib] + CCc1c2c(nc3ccc(O)cc13)-c1cc3c(c(=O)n1C2)COC(=O)[C@]3(O)CC [SN-38] (first compound max 1 µM, 7x7, partner max 0.3 µM) | -0.0592 | 0.0033 | -0.0788 | -0.012 | -0.0269 | 0.0876 | -0.0717 | -0.116 | -0.0247 | -0.0147 | -0.0465 | 0.0231 | 0.055 | 0.163 | -0.0165 | 0.0088 | 0.0807 | 0.0549 | 0.756 | 0.811 |
| Cn1cnc2c(F)c(Nc3ccc(Br)cc3Cl)c(C(=O)NOCCO)cc21 [Selumetinib] + C=CCn1c(=O)c2cnc(Nc3ccc(N4CCN(C)CC4)cc3)nc2n1-c1cccc(C(C)(C)O)n1 [AZD1775] (first compound max 10 µM, partner max 1 µM) | -0.0651 | -0.114 | -0.0563 | -0.0347 | -0.0261 | -0.0267 | -0.0363 | -0.115 | -0.0061 | 0.0681 | -0.0318 | -0.0037 | 0.0225 | -0.059 | -0.0911 | 0.0024 | -0.0294 | -0.0766 | 0.479 | 0.445 |
| CCN(CCO)CCCOc1ccc2c(Nc3cc(CC(=O)Nc4cccc(F)c4)[nH]n3)ncnc2c1 [AZD2811] + C=CCn1c(=O)c2cnc(Nc3ccc(N4CCN(C)CC4)cc3)nc2n1-c1cccc(C(C)(C)O)n1 [AZD1775] (first compound max 1 µM, partner max 1 µM) | -0.0665 | -0.0086 | 0.0144 | -0.0026 | -0.0098 | -0.0014 | 0.0154 | -0.0196 | 0.0036 | 0.0507 | -0.0252 | -0.0067 | 0.0219 | 0.02 | 0.0006 | 0.0108 | -0.0278 | -0.0155 | 0.568 | 0.467 |
| CS(=O)(=O)CCNCc1ccc(-c2ccc3ncnc(Nc4ccc(OCc5cccc(F)c5)c(Cl)c4)c3c2)o1 [Lapatinib] + C[C@@H](Oc1cc(-c2cnn(C3CCNCC3)c2)cnc1N)c1c(Cl)ccc(F)c1Cl [Crizotinib] (first compound max 10 µM, 7x7, partner max 10 µM) | -0.0407 | -0.0023 | -0.0594 | -0.0239 | 0.0412 | -0.044 | -0.0526 | -0.0702 | -0.0725 | -0.0482 | -0.0658 | -0.0141 | 0.0268 | -0.0362 | 0.151 | -0.0676 | -0.0289 | -0.0754 | 0.564 | 0.909 |
| CC(=O)c1c(C)c2cnc(Nc3ccc(N4CCNCC4)cn3)nc2n(C2CCCC2)c1=O [Palbociclib] + Cn1cnc2c(F)c(Nc3ccc(Br)cc3Cl)c(C(=O)NOCCO)cc21 [Selumetinib] (first compound max 10 µM, 7x7, partner max 10 µM) | 0.132 | -0.13 | 0.0008 | -0.0082 | -0.0229 | 0.0041 | 0.0222 | 0 | -0.0461 | -0.0208 | -0.0225 | 0.0542 | 0.0904 | -0.0389 | -0.02 | 0.0583 | 0.0085 | -0.0425 | 0.325 | 0.259 |
| COc1cccc(OCCCN)c1-c1cc(Nc2cnc(C#N)cn2)n[nH]1 [Prexasertib] + O=C(c1cc(Cc2n[nH]c(=O)c3ccccc23)ccc1F)N1CCN(C(=O)C2CC2)CC1 [Olaparib] (first compound max 1 µM, 7x7, partner max 10 µM) | 0.0189 | -0.0315 | -0.0759 | -0.0144 | -0.004 | -0.0432 | -0.0098 | -0.031 | -0.0411 | -0.0105 | 0.0066 | -0.0448 | -0.0685 | -0.0491 | -0.0925 | -0.0412 | -0.0209 | 0.0083 | 0.746 | 0.691 |
